{"source": "paper PMC4850273", "about": "(mBio, 2016)", "molecular_target": "T1, SGBP-A (Bacteroides ovatus, UniProt A7LXT5)", "T1 sequence (A7LXT5 28-546)": "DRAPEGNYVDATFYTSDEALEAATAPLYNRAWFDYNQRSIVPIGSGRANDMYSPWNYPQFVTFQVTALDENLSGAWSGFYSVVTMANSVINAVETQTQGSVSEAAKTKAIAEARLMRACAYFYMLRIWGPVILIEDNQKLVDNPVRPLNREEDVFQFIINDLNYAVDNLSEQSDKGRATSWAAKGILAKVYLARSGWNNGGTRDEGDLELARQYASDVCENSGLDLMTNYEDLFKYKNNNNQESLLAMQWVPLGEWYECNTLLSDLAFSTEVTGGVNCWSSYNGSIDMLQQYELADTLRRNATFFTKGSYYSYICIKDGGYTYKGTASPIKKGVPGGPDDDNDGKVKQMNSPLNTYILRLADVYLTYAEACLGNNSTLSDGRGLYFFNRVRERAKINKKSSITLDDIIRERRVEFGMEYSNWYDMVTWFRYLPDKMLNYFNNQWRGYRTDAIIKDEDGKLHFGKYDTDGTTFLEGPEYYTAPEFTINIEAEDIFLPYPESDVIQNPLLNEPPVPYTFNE", "assay": "ITC", "type": "binding", "settings": "25 °C, 20 mM HEPES, 100 mM NaCl, pH 7.0; two titrations"}
{"smiles": "OC[C@H]1O[C@@H](O[C@H]2[C@H](O)[C@@H](O)[C@H](O[C@H]3[C@H](O)[C@@H](O)[C@H](O[C@H]4[C@H](O)[C@@H](O)[C@H](O[C@H]5[C@H](O)[C@@H](O)[C@H](O[C@H]6[C@H](O)[C@@H](O)C(O)O[C@@H]6CO)O[C@@H]5CO)O[C@@H]4CO)O[C@@H]3CO)O[C@@H]2CO)[C@H](O)[C@@H](O)[C@@H]1O", "note": "(stereo partly shown) [Cellohexaose]", "values": [{"measurement": "Ka (M^-1) / SGBP-A", "value": "568.0 ± 291.0"}]}
